Laboratory results: ChEMBL document CHEMBL6074633, “Assessing the inhibitory effects of some secondary amines, thioureas and 1,3-dimethyluracil conjugates of (-)-cytisine and thermopsine on the RNA-dependent RNA polymerase of SARS-CoV-1 and SARS-CoV-2” (Bioorg Med Chem Lett, 2024)
Activity calls are given as the source filed them. The calls are words filed in the database; no cut-off is given here.

Tests used:
SARS-CoV-2 [1] = assay: Antiviral activity against SARS CoV-2 replicon-based SRIP; type: functional, organism-based; conditions: Severe acute respiratory syndrome coronavirus 2
[2] = biological target: Replicase polyprotein 1ab (Severe acute respiratory syndrome coronavirus 2) (UniProt P0DTD1); assay: Inhibition of SARS CoV-2 RdRp at 10 uM incubated for 2 hrs by fluorescence based assay relative to control
SARS-CoV [3] = type: functional, organism-based; conditions: Severe acute respiratory syndrome-related coronavirus; Calu-3; dose <= 1.0 µM, time 96.0 hrs
[4] = biological target: Replicase polyprotein 1ab (Severe acute respiratory syndrome coronavirus 2) (UniProt P0DTD1); assay: (§1) Inhibition of SARS CoV-2 RdRp incubated for 2 hrs by fluorescence based assay
[5] = biological target: Replicase polyprotein 1ab (Severe acute respiratory syndrome coronavirus 2, UniProt P0DTD1); assay: as §1
SARS-CoV [6] = type: functional, organism-based; conditions: Severe acute respiratory syndrome-related coronavirus
SARS-CoV-2 [7] = type: functional, organism-based
SARS-CoV-2 [8] = type: functional, organism-based; conditions: Severe acute respiratory syndrome coronavirus 2; Calu-3; dose <= 1.0 µM, time 96.0 hrs
SARS-CoV [9] = type: functional, organism-based; conditions: Severe acute respiratory syndrome-related coronavirus; Calu-3; dose <= 1.0 µM, time 120.0 hrs
SARS-CoV-2 [10] = type: functional, organism-based; conditions: Severe acute respiratory syndrome coronavirus 2; Calu-3; dose <= 1.0 µM, time 120.0 hrs
[11] = Cytotoxicity against human Calu-3 cells assessed as cell viability incubated for 96 hrs by MTT assay; type: toxicity, cell-based
in vitro = conditions: human, Calu-3 cells

CCC(CC)COC(=O)[C@H](C)N[P@](=O)(OC[C@H]1O[C@@](C#N)(c2ccc3c(N)ncnn23)[C@H](O)[C@@H]1O)Oc1ccccc1 [REMDESIVIR]
EC50 (SARS-CoV-2 [1]): 170 nM

O=c1cccc2n1C[C@H]1C[C@@H]2CN(C(=S)Nc2ccccc2)C1
inhibition [2]: < 38%

Cn1cc(CNc2ccc3n(c2=O)C[C@H]2C[C@@H]3CN3CCCC[C@@H]23)c(=O)n(C)c1=O
inhibition [2]: < 38%

O=c1ccc(Cl)c2n1C[C@H]1C[C@@H]2CN(C(=S)Nc2ccccc2)C1
inhibition [2]: < 38%

CC(C)NC(=S)Nc1ccc2n(c1=O)C[C@H]1C[C@@H]2CN(C)C1
inhibition [2]: < 38%

C=CCNC(=S)N1C[C@@H]2C[C@H](C1)c1ccc([N+](=O)[O-])c(=O)n1C2
inhibition [2]: < 38%

CN1C[C@@H]2C[C@H](C1)c1ccc(NCc3ccccc3O)c(=O)n1C2
inhibition [2]: < 38%

CN1C[C@@H]2C[C@H](C1)c1ccc(NC/C=C/c3ccccc3)c(=O)n1C2
inhibition [2]: < 38%

CCOC(=O)CNC(=S)Nc1ccc2n(c1=O)C[C@H]1C[C@@H]2CN(C)C1
inhibition [2]: < 38%

CC(C)C[C@H](NC(=O)OCc1ccccc1)C(=O)N[C@@H](C[C@@H]1CCNC1=O)C(O)S(=O)(=O)O (some centres undefined)
EC50 (SARS-CoV-2 [1]): 170 nM

Cn1cc(CNc2ccc3n(c2=O)C[C@H]2C[C@@H]3CN(Cc3ccccc3)C2)c(=O)n(C)c1=O
Activity (SARS-CoV [3]): Active | inhibition [2]: 64% | inhibition [4]: Dose-dependent-effect | IC50 [5]: 7800 nM | EC50 (SARS-CoV [6]; Calu-3, 96 h): 120 nM | Activity (SARS-CoV [6]; Calu-3, dose 0.1-10 µM, time 96.0 hrs): Dose-dependent-effect | EC50 (SARS-CoV-2 [7]; Severe acute respiratory syndrome coronavirus 2, Calu-3, 96 h): 1470 nM | Activity (SARS-CoV-2 [7]; Severe acute respiratory syndrome coronavirus 2, Calu-3, dose 0.1-10 µM, time 96.0 hrs): Dose-dependent-effect | Activity (SARS-CoV-2 [8]): Active | Activity (SARS-CoV [9]): Active | Activity (SARS-CoV-2 [10]): Active | CC50 at 96 h [11]: > 100000 nM | selectivity ratio (in vitro): > 68

COC(=O)CN1C[C@@H]2C[C@H](C1)c1ccc(NCc3cn(C)c(=O)n(C)c3=O)c(=O)n1C2
inhibition [2]: < 38%
